Laboratory results taken from the NIST ThermoML archive (doi:10.1021/je2010038).
± gives the expanded uncertainty stated by the source.

Assay: xn = mol fraction of the nth substance listed
Conditions: Liquid, Vibrating tube method

NCCO [2-aminoethan-1-ol] + O
mass density [kg/m3]
Conditions | x1 = 0.1122 | x1 = 0.1643 | x1 = 0.2278 | x1 = 0.3067 | x1 = 0.4077 | x1 = 0.5412 | x1 = 0.7264 | x1 = 1
333.15 K, 101 kPa | – | – | – | – | 1000.8 ± 0.7 | 998.2 ± 0.7 | 992.7 ± 0.7 | 983.9 ± 0.7
338.15 K, 101 kPa | 989.5 ± 0.7 | 992.7 ± 0.7 | 995.4 ± 0.7 | 997.1 ± 0.7 | 997 ± 0.7 | 994.2 ± 0.7 | 988.7 ± 0.7 | 979.8 ± 0.7
343.15 K, 101 kPa | 986.1 ± 0.7 | 989.4 ± 0.7 | 991.9 ± 0.7 | 993.2 ± 0.7 | 993.1 ± 0.7 | 990.2 ± 0.7 | 984.6 ± 0.7 | 975.8 ± 0.7
348.15 K, 101 kPa | 983 ± 0.7 | 985.9 ± 0.7 | 988.3 ± 0.7 | 989.5 ± 0.7 | 989.2 ± 0.7 | 986.2 ± 0.7 | 980.6 ± 0.7 | 971.6 ± 0.7
353.15 K, 101 kPa | 979.4 ± 0.7 | 982.4 ± 0.7 | 984.5 ± 0.7 | 985.6 ± 0.7 | 985.2 ± 0.7 | 982.1 ± 0.7 | 976.5 ± 0.7 | 967.5 ± 0.7
358.15 K, 101 kPa | 976.1 ± 0.7 | 978.7 ± 0.7 | 980.8 ± 0.7 | 981.8 ± 0.7 | 981.2 ± 0.7 | 978 ± 0.7 | 972.3 ± 0.7 | 963.4 ± 0.7
363.15 K, 101 kPa | 972.5 ± 0.7 | 975 ± 0.7 | 976.9 ± 0.7 | 977.7 ± 0.7 | 977.1 ± 0.7 | 973.9 ± 0.7 | 968.1 ± 0.7 | 959.2 ± 0.7
373.1 K, 700 kPa | 965.3 ± 0.7 | 967.2 ± 0.7 | 969 ± 0.7 | 969.4 ± 0.7 | 968.5 ± 0.7 | 965.3 ± 0.7 | 959.3 ± 0.7 | 950.9 ± 0.7
383.15 K, 700 kPa | 957.4 ± 0.7 | 959.1 ± 0.7 | 960.6 ± 0.7 | 960.8 ± 0.7 | 959.8 ± 0.7 | 956.5 ± 0.7 | 950.6 ± 0.7 | 942.3 ± 0.7
393.15 K, 700 kPa | 949.1 ± 0.7 | 950.7 ± 0.7 | 952 ± 0.7 | 952.1 ± 0.7 | 950.9 ± 0.7 | 947.6 ± 0.7 | 941.7 ± 0.7 | 933.5 ± 0.7
403.15 K, 700 kPa | 940.6 ± 0.7 | 941.9 ± 0.7 | 943.1 ± 0.7 | 943.1 ± 0.7 | 941.9 ± 0.7 | 938.6 ± 0.7 | 932.7 ± 0.7 | 924.7 ± 0.7
413.15 K, 700 kPa | 931.7 ± 0.7 | 932.9 ± 0.7 | 934 ± 0.7 | 933.8 ± 0.7 | 932.6 ± 0.7 | 929.3 ± 0.7 | 923.6 ± 0.7 | 915.7 ± 0.7
423.15 K, 700 kPa | 922.3 ± 0.7 | 923.3 ± 0.7 | 924.3 ± 0.7 | 924.1 ± 0.7 | 922.8 ± 0.7 | 919.5 ± 0.7 | 914.1 ± 0.7 | 906.4 ± 0.7
